Source: patent US9617244B2, “Antibacterial quinoline derivatives” (JANSSEN PHARMACEUTICA NV, priority 2012, dated 2017)
Converted amounts (≈) assume the structure as drawn.

Legend:
[1] = tested on: Staphylococcus aureus (ATCC29213); assay: In-vitro anti-bacterial activity, microtitre plate assay, IC90 determination (non-mycobacterial strains); type: cell-based; conditions: 90% inhibitory concentration for bacterial growth, resazurin fluorescence; for IC90: Staphylococcus aureus, ATCC29213, 24 h, read-out: IC90 STA B29213; for IC90 STA B29213: 24 hours
Experimental: D.2. In-Vitro Method for Testing Compounds for Anti-Bacterial Activity Against Various Non-Mycobacterial Strains
Preparation of Bacterial Suspensions for Susceptibility Testing:
The bacteria used in this study were grown overnight in flasks containing 100 ml Mueller-Hinton Broth (Becton Dickinson—cat. no. 275730) in sterile de-ionized water, with shaking, at 37° C. Stocks (0.5 ml/tube) were stored at −70° C. until use. Bacteria titrations were performed in microtiter plates to detect the TCID50, in which TCID50 represents the dilution that gives rise to bacterial growth in 50% of inoculated cultures. In general, an inoculum level of approximately 100 TCID50 was used for susceptibility testing.
Anti Bacterial Susceptibility Testing: IC90 Determination
Flat-bottom, sterile 96-well plastic microtiter plates were filled with 180 μl of sterile deionized water, supplemented with 0.25% BSA. Subsequently, stock solutions (7.8× final test concentration) of compounds were added in 45 μl volumes in column 2 Serial five-fold dilutions (45 μl in 180 μl) were made directly in the microtiter plates from column 2 to reach column 11. Untreated control samples with (column 1) and without (column 12) inoculum were included in each microtiter plate. Depending on the bacteria type, approximately 10 to 60 CFU per well of bacteria inoculum (100 TCID50), in a volume of 100 μl in 2.8× Mueller-Hinton broth medium, was added to the rows A to H, except column 12. The same volume of broth medium without inoculum was added to column 12 in row A to H. The cultures were incubated at 37° C. for 24 hours under a normal atmosphere (incubator with open air valve and continuous ventilation). At the end of incubation, one day after inoculation, the bacterial growth was quantitated fluorometrically. Therefore resazurin (0.6 mg/ml) was added in a volume of 20 μl to all wells 3 hours after inoculation, and the plates were re-incubated overnight. A change in colour from blue to pink indicated the growth of bacteria. The fluorescence was read in a computer-controlled fluorometer (Cytofluor Biosearch) at an excitation wavelength of 530 nm and an emission wavelength of 590 nm. The % growth inhibition achieved by the compounds was calculated according to standard methods. The IC90 (expressed in μg/ml) was defined as the 90% inhibitory concentration for bacterial growth.

[2] = tested on: Mycobacterium smegmatis (ATCC607); assay: In-vitro anti-bacterial activity against strain M. Smegmatis ATCC607; type: cell-based; conditions: 90% inhibitory concentration for bacterial growth, Alamar Blue fluorescence; for IC90: Mycolicibacterium smegmatis, ATCC607, 48 h, read-out: IC90 MSM 607; for IC90 MSM 607: 48 hours
Experimental: D.1. In-Vitro Method for Testing Compounds for Anti-Bacterial Activity Against Strain M. Smegmatis ATCC607
Flat-bottom, sterile 96-well plastic microtiter plates were filled with 180 μl of sterile deionized water, supplemented with 0.25% BSA. Subsequently, stock solutions (7.8× final test concentration) of compounds were added in 45 μl volumes to a series of duplicate wells in column 2 so as to allow evaluation of their effects on bacterial growth. Serial five-fold dilutions (45 μl in 180 μl) were made directly in the microtiter plates from column 2 to 11 using a customised robot system (Zymark Corp., Hopkinton, Mass.). Pipette tips were changed after every 3 dilutions to minimize pipetting errors with high hydrophobic compounds. Untreated control samples with (column 1) and without (column 12) inoculum were included in each microtiter plate. Approximately 250 CFU per well of bacteria inoculum, in a volume of 100 μl in 2.8× Mueller-Hinton broth medium, was added to the rows A to H, except column 12. The same volume of broth medium without inoculum was added to column 12 in row A to H. The cultures were incubated at 37° C. for 48 hours in a humidified 5% CO2 atmosphere (incubator with open air valve and continuous ventilation). At the end of incubation, two days after inoculation, the bacterial growth was quantitated fluorometrically. Therefore Alamar Blue (10×) was added to all wells in a volume of 20 μl and plates were incubated for another 2 hours at […]
The fluorescence was read in a computer-controlled fluorometer (Cytofluor, Biosearch) at an excitation wavelength of 530 nm and an emission wavelength of 590 nm (gain 30). The percentage growth inhibition achieved by the compounds was calculated according to standard methods and expressed as IC90 (μg/ml) which defines the 90% inhibitory concentration for bacterial growth.

Row | SMILES | IC90 [1] [µg/mL] | IC90 [2] [µg/mL] | IC90 STA B29213 [1] [µg/mL] | IC90 MSM 607 [2] [µg/mL]
1 | COc1nc2ccc(Cl)cc2cc1C(c1ccc(Cl)cc1)C1(O)CCNC(CNc2cccnc2)C1 (stereo not drawn) [Compound 469] | 8.3 (≈ 15.9 µM) | 4.16 (≈ 7.95 µM) | – | –
2 | Cc1cc(F)ccc1C1CC(O)(C(c2ccc(Cl)cc2)c2cc3cc(S(C)(=O)=O)ccc3[nH]c2=O)CCN1 (stereo not drawn) [Compound 224] | – | – | 3.73 (≈ 6.72 µM) | 5.92 (≈ 10.7 µM)
3 | COc1nc2ccc(Br)cc2cc1C(c1cccc(Cl)c1)C1(O)CCNC(c2ccc(F)cc2C)C1 (stereo not drawn) [Compound 151] | – | – | 5.26 (≈ 9.23 µM) | 2.35 (≈ 4.12 µM)
4 | COc1nc2ccc(Cl)cc2cc1C(c1ccc(Cl)cc1)C1(O)CCNC(c2ccc3ccccc3c2)C1 (stereo not drawn) [Compound 431] | – | – | 8.60 (≈ 15.8 µM) | 7.66 (≈ 14.1 µM)
5 | COc1nc2ccc(Cl)cc2cc1C(c1ccc(S(C)(=O)=O)cc1)C1(O)CCNC(c2ccc(F)cc2C)C1 (stereo not drawn) [Compound 369] | – | – | 9.12 (≈ 16 µM) | 4.57 (≈ 8.03 µM)
6 | CSc1ccc2[nH]c(=O)c(C(c3ccc(Cl)cc3)C3(O)CCNC(CC4CCCCC4)C3)cc2c1 (stereo not drawn) [Compound 296] | – | – | 3.43 (≈ 6.71 µM) | 6.85 (≈ 13.4 µM)
7 | O=c1[nH]c2ccc(Br)cc2cc1C(c1ccc(Cl)cc1)C1(O)CCNC(Cc2ccc(F)cc2F)C1 (stereo not drawn) [Compound 324] | – | – | 1.93 (≈ 3.36 µM) | 3.43 (≈ 5.98 µM)
8 | CSc1ccc2[nH]c(=O)c(C(c3ccc(Cl)cc3)C3(O)CCNC(Cc4ccc(F)cc4)C3)cc2c1 (stereo not drawn) [Compound 282] | – | – | 7.02 (≈ 13.4 µM) | 7.02 (≈ 13.4 µM)
9 | O=c1[nH]c2ccc(F)cc2cc1C(c1ccc(Cl)cc1)C1(O)CCNC(Cc2ccccc2)C1 (stereo not drawn) [Compound 375] | – | – | >12.90 | 12.90 (≈ 27 µM)
10 | C=CC1CC(O)(C(c2ccc(Cl)cc2)c2cc3cc(Br)ccc3[nH]c2=O)CCN1 (stereo not drawn) [Compound 362] | – | – | 12.82 (≈ 27.1 µM) | 10.18 (≈ 21.5 µM)
11 | COc1nc2ccc(Br)cc2cc1C(c1ccc(Cl)cc1)C1(O)CCNC(Cc2ccc(F)cc2F)C1 (stereo not drawn) [Compound 51] | – | – | 2.34 (≈ 3.98 µM) | 1.17 (≈ 1.99 µM)
12 | Cc1cc(F)ccc1C1CC(O)(C(c2ccc(Cl)cc2)c2cc3cc(S(C)(=O)=O)ccc3[nH]c2=O)CCN1 (stereo not drawn) [Compound 221] | – | – | 3.73 (≈ 6.72 µM) | 2.96 (≈ 5.33 µM)
13 | Cc1cc(F)ccc1C1CC(O)(C(c2cccc(Cl)c2)c2cc3cc(Br)ccc3[nH]c2=O)CCN1 (stereo not drawn) [Compound 143] | – | – | 1.82 (≈ 3.27 µM) | 2.04 (≈ 3.67 µM)
14 | CS(=O)(=O)c1ccc2[nH]c(=O)c(C(c3ccc(Cl)cc3)C3(O)CCN[C@@H](Cc4ccc(F)c(F)c4)C3)cc2c1 (stereo in doubt) [Compound 206] | – | – | >15.08 | >15.08
15 | COc1nc2ccc(SC(C)C)cc2cc1C(c1ccc(Cl)cc1)C1(O)CCNC(Cc2ccccc2)C1 (stereo not drawn) [Compound 382] | 3.45 (≈ 6.31 µM) | 2.18 (≈ 3.98 µM) | – | –
16 | O=c1[nH]c2ccc(Br)cc2cc1C(c1ccc(Cl)cc1)C1(O)CCNC(Cc2ccccc2)C1 (stereo not drawn) [Compound 128] | – | 3.62 (≈ 6.73 µM) | 4.56 (≈ 8.48 µM) | –
17 | COc1nc2ccc(Br)cc2cc1C(c1ccc(Cl)cc1)C1(O)CCN(Cc2ccccc2)CC1C (stereo not drawn) [Compound 26] | – | – | >44.79 | –
18 | COc1nc2ccc(-c3cccnc3)cc2cc1C(c1ccc(Cl)cc1)C1(O)CCNC(Cc2ccccc2)C1 (stereo not drawn) [Compound 80] | 4.37 (≈ 7.94 µM) | – | – | –
19 | CC1CC(O)(C(c2ccc(Cl)cc2)c2cc3cc(Br)ccc3[nH]c2=O)CCN1 (stereo not drawn) [Compound 132] | – | – | – | 9.21 (≈ 19.9 µM)
20 | COc1nc2ccc(F)cc2cc1C(c1ccc(Cl)cc1)C1(O)CCN(C(C)c2ccccc2)C(CO)C1 (stereo not drawn) [Compound 437] | – | – | 13.44 (≈ 25.1 µM) | –
21 | COc1nc2ccc(Br)cc2cc1C(c1ccccc1)C1(O)CCNC(Cc2ccccc2)C1 (stereo not drawn) [Compound 72] | 4.11 (≈ 7.94 µM) | – | – | –
22 | COc1nc2ccc(Cl)cc2cc1C(c1ccc(Cl)cc1)C1(O)CCNC(c2ccc3ccccc3c2)C1 (stereo not drawn) [Compound 441] | – | – | 12.17 (≈ 22.4 µM) | –
23 | COc1nc2ccc(Cl)cc2cc1C(c1ccc(Cl)cc1)C1(O)CCNC(c2ccc3ccccc3c2)C1 (stereo not drawn) [Compound 440] | – | – | 8.61 (≈ 15.8 µM) | –
